Consider 30 molecules from patent publication US10758534B2 (Vertex Pharmaceuticals Incorporated, priority 2014, dated 2020).

Each structure is given as a SMILES string. Like-named read-outs stand apart in the source and are kept apart here.

For the test, the target named is T1, F508del (Homo sapiens, UniProt P13569, DEL508-508).
T1 construct: expressed in transfected cells
Nature of the test: Protocol 2: FRET membrane potential optical assay (VIPR), identification of correction compounds. The test is classed as cell-based. In a few lines: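 Correction of the F508del trafficking defect is scored as forskolin (10 μM)/genistein (20 μM)-stimulated Cl^− efflux in NIH3T3 mouse fibroblasts after a 16 hr, 37° C. compound exposure. Depolarization was followed optically using voltage-sensing FRET dyes.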

Where [1] appears, read: Table 3, compounds of Table 1 as modulators of CFTR activity, protocol not stated.
Setting [2] is: F508del CFTR modulator activity, compounds of Table 1, read-out: EC30.

T1 sequence (P13569 with tags, fused parts or gaps DEL508-508): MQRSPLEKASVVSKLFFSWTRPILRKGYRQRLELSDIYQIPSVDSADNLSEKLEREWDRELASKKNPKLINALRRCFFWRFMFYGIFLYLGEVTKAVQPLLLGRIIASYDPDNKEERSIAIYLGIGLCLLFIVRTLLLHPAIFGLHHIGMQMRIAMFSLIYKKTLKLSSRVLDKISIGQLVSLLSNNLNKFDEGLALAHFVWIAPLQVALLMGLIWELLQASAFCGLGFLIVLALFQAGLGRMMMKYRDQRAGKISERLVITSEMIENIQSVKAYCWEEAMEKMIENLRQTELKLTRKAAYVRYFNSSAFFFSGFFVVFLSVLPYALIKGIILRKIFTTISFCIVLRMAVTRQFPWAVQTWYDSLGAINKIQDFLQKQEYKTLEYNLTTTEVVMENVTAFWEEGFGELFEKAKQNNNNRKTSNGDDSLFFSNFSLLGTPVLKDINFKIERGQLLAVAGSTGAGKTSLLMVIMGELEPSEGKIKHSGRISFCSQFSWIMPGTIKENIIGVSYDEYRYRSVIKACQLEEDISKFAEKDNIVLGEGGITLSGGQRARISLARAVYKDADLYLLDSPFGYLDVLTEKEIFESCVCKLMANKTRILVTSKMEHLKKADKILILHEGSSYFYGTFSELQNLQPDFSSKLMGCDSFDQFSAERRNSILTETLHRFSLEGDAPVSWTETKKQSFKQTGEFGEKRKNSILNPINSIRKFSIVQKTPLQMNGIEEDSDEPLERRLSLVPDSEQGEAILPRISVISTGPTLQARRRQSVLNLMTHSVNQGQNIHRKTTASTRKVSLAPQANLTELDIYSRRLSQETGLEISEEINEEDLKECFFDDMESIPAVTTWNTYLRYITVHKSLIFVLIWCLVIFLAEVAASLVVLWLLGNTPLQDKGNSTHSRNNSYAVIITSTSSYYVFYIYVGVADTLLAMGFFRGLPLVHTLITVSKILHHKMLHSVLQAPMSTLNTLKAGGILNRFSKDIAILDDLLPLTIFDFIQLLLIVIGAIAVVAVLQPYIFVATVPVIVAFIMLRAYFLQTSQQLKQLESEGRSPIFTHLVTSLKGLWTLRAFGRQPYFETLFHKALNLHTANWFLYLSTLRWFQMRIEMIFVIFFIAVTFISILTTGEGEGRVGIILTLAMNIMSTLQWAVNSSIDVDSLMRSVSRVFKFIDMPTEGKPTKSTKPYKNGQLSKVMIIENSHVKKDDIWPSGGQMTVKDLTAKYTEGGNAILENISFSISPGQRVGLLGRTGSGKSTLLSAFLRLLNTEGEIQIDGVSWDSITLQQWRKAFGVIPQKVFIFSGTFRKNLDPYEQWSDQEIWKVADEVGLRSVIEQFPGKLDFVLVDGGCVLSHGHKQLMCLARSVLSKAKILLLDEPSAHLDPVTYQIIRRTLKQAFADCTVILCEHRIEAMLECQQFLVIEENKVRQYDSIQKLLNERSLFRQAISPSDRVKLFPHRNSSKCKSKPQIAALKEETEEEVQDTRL

As to `CC(C)Oc1ccc(-c2ccc(C(=O)NS(=O)(=O)c3cccc(N)n3)c(N3C(C)CC4CCCCC43)n2)cn1` (stereo not drawn) [Compound 675, N-[(6-amino-2-pyridyl)sulfonyl]-6-(6-isopropoxy-3-pyridyl)-2-(2-methyl-2,3,3a,4,5,6,7,7a-octahydroindol-1-yl)pyridine-3-carboxamide], the EC30 (as a rule, the point of the concentration-response curve where the effect stands at 30%) under setting [1] is reported as “+++ (“+++” means <3 uM)”. Same read-out and setting: with `Cc1cc(C)c(Cn2c(C(=O)NS(=O)(=O)c3ccccc3)cc3cc(Cl)ccc32)c(C)c1` [Compound 137, N-(benzenesulfonyl)-5-chloro-1-[(2,4,6-trimethylphenyl)methyl]indole-2-carboxamide] the entry was “+++ (“+++” means <3 uM)”; with `COc1cccc(-c2ccc(C(=O)NS(=O)(=O)c3cccc(N)n3)c(Oc3c(C)cc(C)cc3C)n2)c1` [Compound 413, N-[(6-amino-2-pyridyl)sulfonyl]-6-(3-methoxyphenyl)-2-(2,4,6-trimethylphenoxy)pyridine-3-carboxamide], “+++ (“+++” means <3 uM)”.

As to `CC(C)COc1cc(F)cc(-c2ccc(C(=O)NS(=O)(=O)c3cccc(N)n3)c(N3CCC[C@@H]3C(=O)OC(C)(C)C)n2)c1` [Compound 2216, tert-butyl (2R)-1-[3-[(6-amino-2-pyridyl)sulfonylcarbamoyl]-6-(3-fluoro-5-isobutoxy-phenyl)-2-pyridyl]pyrrolidin-2-carboxylate], the EC30 under setting [2] was less than 3000 nM. With `Nc1cccc(S(=O)(=O)NC(=O)c2cccnc2Oc2ccccc2-c2nc3ccccc3o2)n1` [Compound 2544, N-[(6-amino-2-pyridyl)sulfonyl]-2-[2-(1,3-benzoxazol-2-yl)phenoxy]pyridine-3-carboxamide], the EC30 under setting [2] was greater than 10000 nM. The same measure, in the same setting: with `CC(C)COc1cc(F)cc(-c2ccc(C(=O)NS(=O)(=O)c3cccc(N)n3)c(N3CCC[C@H]3C(=O)OC(C)(C)C)n2)c1` [Compound 2204, tert-butyl (2S)-1-[3-[(6-amino-2-pyridyl)sulfonylcarbamoyl]-6-(3-fluoro-5-isobutoxy-phenyl)-2-pyridyl]pyrrolidine-2-carboxylate] the figure was less than 3000 nM. The same measure, in the same setting: in the case of `CC1CN(c2ncccc2C(=O)NS(=O)(=O)c2cccc(Nc3ccc(N4CCCCC4)cc3)n2)C(C)(C)C1` (stereo not drawn) [Compound 2087, N—[[6-[4-(1-piperidyl)anilino]-2-pyridyl]sulfonyl]-2-(2,2,4-trimethylpyrrolidin-1-yl)pyridine-3-carboxamide] it was less than 3000 nM; in that of `CC1CN(c2ncccc2C(=O)NS(=O)(=O)c2cccc(Oc3ccc4ccccc4c3)n2)C(C)(C)C1` (stereo not drawn) [Compound 2611, N—[[6-(2-naphthyloxy)-2-pyridyl]sulfonyl]-2-(2,2,4-trimethylpyrrolidin-1-yl)pyridine-3-carboxamide], less than 3000 nM; in that of `C[C@@H]1CN(c2nc(-c3ccccc3OC(F)(F)F)ccc2C(=O)NS(=O)(=O)c2ccc[nH]c2=O)C(C)(C)C1` [Compound 2514, N-[(2-oxo-1H-pyridin-3-yl)sulfonyl]-6-[2-(trifluoromethoxy)phenyl]-2-[(4S)-2,2,4-trimethylpyrrolidin-1-yl]pyridine-3-carboxamide], less than 3000 nM. As to `C[C@@H]1CN(c2nc(-c3ccccc3O)ccc2C(=O)NS(=O)(=O)c2cccc(N)n2)C(C)(C)C1` [Compound 2555, N-[(6-amino-2-pyridyl)sulfonyl]-6-(2-hydroxyphenyl)-2-[(4S)-2,2,4-trimethylpyrrolidin-1-yl]pyridine-3-carboxamide], under setting [2], the concentration for an effect of 30% (EC30) is less than 3000 nM. As for `Cc1cc(C)c(Cn2nc(C(C)(C)C)cc2C(=O)NS(=O)(=O)c2cccc(N(C)C)c2C)c(C)c1` [Compound 104, 5-tert-butyl-N-[3-(dimethylamino)-2-methyl-phenyl]sulfonyl-2-[(2,4,6-trimethylphenyl)methyl]pyrazole-3-carboxamide], the EC30 entry under setting [1] is listed as “+++ (“+++” means <3 uM)”. For the molecule `C[C@@H]1CN(c2nc(C3CC4CCC3C4)ccc2C(=O)NS(=O)(=O)c2cccnc2N)C(C)(C)C1` (stereo partly drawn) [Compound 2097, N-[(2-amino-3-pyridyl)sulfonyl]-6-norbornan-2-yl-2-[(4S)-2,2,4-trimethylpyrrolidin-1-yl]pyridine-3-carboxamide], under setting [2], the EC30 is less than 3000 nM.

`CC(C)COc1cc(F)cc(-c2ccc(C(=O)NS(=O)(=O)c3cccc(N)n3)c(N3C[C@H](C)C[C@H](C)C3)n2)c1` [Compound 371, N-[(6-amino-2-pyridyl)sulfonyl]-2-[(3R,5S)-3,5-dimethyl-1-piperidyl]-6-(3-fluoro-5-isobutoxy-phenyl)pyridine-3-carboxamide]: the EC30 entry under setting [1] is given as “+++ (“+++” means <3 uM)”.

Consider `CC1CN(c2ncccc2C(=O)NS(=O)(=O)c2cccc(Oc3cccc(Cl)c3)n2)C(C)(C)C1` (stereo not drawn) [Compound 2461, N—[[6-(3-chlorophenoxy)-2-pyridyl]sulfonyl]-2-(2,2,4-trimethylpyrrolidin-1-yl)pyridine-3-carboxamide], for which, under setting [2], the EC30 was less than 3000 nM. Consider `Cc1cc(C)c(Oc2nc(Cc3ccccc3)ccc2C(=O)NS(=O)(=O)c2cccc(N)n2)c(C)c1` [Compound 1, N-[(6-amino-2-pyridyl)sulfonyl]-6-benzyl-2-(2,4,6-trimethylphenoxy)pyridine-3-carboxamide], for which, under setting [1], the EC30 result is on record as “+++ (“+++” means <3 uM)”.

As for `CC(C)COc1cc(F)cc(-c2ccc(C(=O)NS(=O)(=O)c3ccn[nH]3)c(Oc3ccccc3)n2)c1` [Compound 679, 6-(3-fluoro-5-isobutoxy-phenyl)-2-phenoxy-N-(1H-pyrazol-5-ylsulfonyl)pyridine-3-carboxamide], the concentration for an effect of 30% (EC30) entry under setting [1] was “+++ (“+++” means <3 uM)”. Regarding `CC1CN(c2ncc(-c3cccc4[nH]ncc34)cc2C(=O)NS(=O)(=O)c2cccc(N)n2)C(C)(C)C1` (stereo not drawn) [Compound 2157, N-[(6-amino-2-pyridyl)sulfonyl]-5-(1H-indazol-4-yl)-2-(2,2,4-trimethylpyrrolidin-1-yl)pyridine-3-carboxamide], the EC30 under setting [2] is greater than 10000 nM. On to `Cc1cc(C)c(Oc2nc(-c3cc(F)cc(OCC(C)C)c3)ccc2C(=O)NS(=O)(=O)c2ccc[nH]c2=O)c(C)c1` [Compound 169, 6-(3-fluoro-5-isobutoxy-phenyl)-N-[(2-oxo-1H-pyridin-3-yl)sulfonyl]-2-(2,4,6-trimethylphenoxy)pyridine-3-carboxamide], for which the EC30 result under setting [1] is reported as “+++ (“+++” means <3 uM)”. Consider `Cc1cc(C)c(CN2Cc3ccccc3C2C(=O)NS(=O)(=O)c2ccccc2N)c(C)c1` (stereo not drawn) [Compound 230, N-(2-aminophenyl)sulfonyl-2-[(2,4,6-trimethylphenyl)methyl]isoindoline-1-carboxamide], for which the EC30 result under setting [1] was “++ (“++” means between 3 uM and 10 uM)”. In the case of `CC1CN(c2ncccc2C(=O)NS(=O)(=O)c2cccc(Oc3cccc(C#N)c3)n2)C(C)(C)C1` (stereo not drawn) [Compound 2725], the EC30 under setting [2] was less than 3000 nM. As to `CC1CCCN(c2nc(-c3ccc(OC(C)C)nc3)ccc2C(=O)NS(=O)(=O)c2cccc(N)n2)C1` (stereo not drawn) [Compound 321, N-[(6-amino-2-pyridyl)sulfonyl]-6-(6-isopropoxy-3-pyridyl)-2-(3-methyl-1-piperidyl)pyridine-3-carboxamide], the EC30 entry under setting [1] is given as “+++ (“+++” means <3 uM)”. Still for that read-out and setting: in the case of `CC(C)COc1cc(F)cc(-c2ccc(C(=O)NS(=O)(=O)c3ccc[nH]c3=O)c(N3CCC(C)CC3)n2)c1` [Compound 422, 6-(3-fluoro-5-isobutoxy-phenyl)-2-(4-methyl-1-piperidyl)-N-[(2-oxo-1H-pyridin-3-yl)sulfonyl]pyridine-3-carboxamide] it was “+++ (“+++” means <3 uM)”; in that of `Cc1ccc(Oc2nc3c(cc2C(=O)NS(=O)(=O)c2ccc[nH]c2=O)CCCC3(C)C)c(C)c1` [Compound 634, 2-(2,4-dimethylphenoxy)-8,8-dimethyl-N-[(2-oxo-1H-pyridin-3-yl)sulfonyl]-6,7-dihydro-5H-quinoline-3-carboxamide], “+++ (“+++” means <3 uM)”.

`CC1CN(c2ncccc2C(=O)NS(=O)(=O)c2cccc(OC3CCCCCC3)n2)C(C)(C)C1` (stereo not drawn) [Compound 2252, N—[[6-(cycloheptoxy)-2-pyridyl]sulfonyl]-2-(2,2,4-trimethylpyrrolidin-1-yl)pyridine-3-carboxamide]: the EC30 under setting [2] was less than 3000 nM.

Take `CC1CCN(c2nc(-c3cc(F)cc(OC(C)C)c3)ccc2C(=O)NS(=O)(=O)c2ccc[nH]c2=O)CC1` [Compound 737, 6-(3-fluoro-5-isopropoxy-phenyl)-2-(4-methyl-1-piperidyl)-N-[(2-oxo-1H-pyridin-3-yl)sulfonyl]pyridine-3-carboxamide]: under setting [1], the EC30 result was “+++ (“+++” means <3 uM)”. Consider `COc1ccc(-c2ccc(C(=O)NS(=O)(=O)c3cccc(N)n3)c(Oc3c(C)cc(C)cc3C)n2)cc1` [Compound 17, N-[(6-amino-2-pyridyl)sulfonyl]-6-(4-methoxyphenyl)-2-(2,4,6-trimethylphenoxy)pyridine-3-carboxamide], for which the EC30 entry under setting [1] was “+++ (“+++” means <3 uM)”.

Regarding `Cc1cc(C)c(Oc2nc(-c3ccc(C)nc3)ccc2C(=O)NS(=O)(=O)c2cccc(N)n2)c(C)c1` [Compound 513, N-[(6-amino-2-pyridyl)sulfonyl]-6-(6-methyl-3-pyridyl)-2-(2,4,6-trimethylphenoxy)pyridine-3-carboxamide], the EC30 entry under setting [1] was “++ (“++” means between 3 uM and 10 uM)”. Still for that read-out and setting: in the case of `Cc1ccc(-c2ccc(C(=O)NS(=O)(=O)c3cccc(N)n3)c(N3CC(C)CC3(C)C)n2)cc1` (stereo not drawn) [Compound 456, N-[(6-amino-2-pyridyl)sulfonyl]-6-(p-tolyl)-2-(2,2,4-trimethylpyrrolidin-1-yl)pyridine-3-carboxamide] it was “+++ (“+++” means <3 uM)”; in that of `CC(C)COc1cc(F)cc(-c2ccc(C(=O)NS(=O)(=O)c3cccc(N)n3)c(N3CCCC3C)n2)c1` (stereo not drawn) [Compound 479, N-[(6-amino-2-pyridyl)sulfonyl]-6-(3-fluoro-5-isobutoxy-phenyl)-2-(2-methylpyrrolidin-1-yl)pyridine-3-carboxamide], “+++ (“+++” means <3 uM)”.

As for `Cc1cc(C)c(Oc2cc(C(C)(C)C)ncc2C(=O)NS(=O)(=O)c2cccc(N)c2)c(C)c1` [Compound 338, N-(3-aminophenyl)sulfonyl-6-tert-butyl-4-(2,4,6-trimethylphenoxy)pyridine-3-carboxamide], the concentration for an effect of 30% (EC30) entry under setting [1] is reported as “+++ (“+++” means <3 uM)”.
